# Columns and labels:
# [1] = test system: HEK-293; test: Cell viability MTT assay, normal cells; type: cell-based; conditions: Homo sapiens, HEK293; HEK-293, 24 h, MTT; read-out: IC50
# Description: (§1) For fluorescence imaging of living cells, human embryonic kidney 293 (HEK-293, ATCC) and human hepatoma cancer cell (HepG2, ATCC) were cultured in Dulbecco′s Modified Eagle′s Medium (DMEM, HyClone) supplemented with 10% Fetal Bovine Serum (FBS, Gibco, Carlsbad, CA, USA) and 1% Penicillin/Streptomycin Solution 100X (Corning, Corning, NY, USA). All cells were cultured in a humidified incubator at 37 °C with 5% CO2. HEK-293 and HepG2 cells, approximately 1 × 10^4 cells, were seeded on 8-well chambered cover glasses (LabTek, Nunc, Carlsbad, CA, USA) and incubated in complete medium for 24 h. After that, the cells were treated with 5 μM stock solutions of 3a–f in DMSO/cell culture medium containing 10% FBS (0.25% DMSO), for 0, 1, 3, and 6 h. Then, the cells were washed twice with 0.01 M PBS before being visualized under a Laser-Scanning Confocal Microscope (Nikon A1Rsi) with a 60× oil immersion objective lens and living cell workstation with the excitation channel at 488 nm.
# (§2) The cells were seeded on a 96-well plate, approximately 7 × 10^3 cells per well, and incubated in complete medium for 24 h. After that, the cells were treated with 0, 1, 5, 10, 20, and 50 μM of chalcones 3a–f, and culturing continued for 24 h. After incubation, the cells were washed three times with 10 mM PBS and treated with […] of methylthiazolyldiphenyl-tetrazolium bromide (MTT reagent, 0.5 mg mL^−1, Sigma-Aldrich, St. Louis, MO, USA) for 2–3 h. After medium removal, DMSO was added to dissolve the formazan product, and cell viability was determined by UV–Vis absorption of the resulting formazan at a wavelength of 560 nm in a microplate reader (BMG Labtech/SPECTROstar Nano, Ortenberg, Germany).
# [2] = Photo-stability test (photobleaching under 250 W blue light); type: physicochemical; conditions: DMSO, 250 W blue light (380–500 nm), after 30 min irradiation
# Description: Chalcones 3a–f were dissolved in DMSO at the final concentration of 1 × 10^−6 M for measuring absorption and emission intensity. Then, 3a–f were irradiated at 250 W (blue-lamp) at a distance of 75 cm. The UV–Visible absorption and fluorescence spectra of the solutions were measured at different time points including 0, 1, 5, 10, 15, 20, and 30 min. Photo-stability was reported in terms of photobleaching absorption and emission (%) calculated from the change of absorption and emission intensity at the absorption and emission maxima before and after irradiation.
# [3] = test system: E. coli 780; test: Antibacterial activity test (MIC, MBC, growth curve); type: cell-based, Escherichia coli; conditions: Escherichia coli, E. coli 780, mean ± SD of three independent experiments
# Description: (§3) All bacteria strains were obtained from the Thailand Institute of Scientific and Technological Research (TISTR). The antibacterial activity of chalcones 3a–f was determined by the minimal inhibitory concentration (MIC) and the minimal bactericidal concentration (MBC) against the Gram-positive (S. aureus 1466, TISTR 1466) and Gram-negative (E.coli 780, TISTR 780) bacteria. The stocks of chalcones 3a–f (0.60 mg/mL) were serially diluted in Muller–Hinton (MH) broth to obtain concentrations in the range of 250–1000 µM. The solutions of chalcones 3a–f (100 µL) at different concentrations were added in the culture of the tested bacteria (100 µL) at a concentration of 1 × 10^6 colony-forming units/mL (CFU/mL) in MH broth at 37 °C with shaking at 80 rpm. The bacterial numbers were determined by measuring the optical density at 600 nm by a UV–Vis spectrometer. […] To determine the MBC values, the bacterial cultures (10 µL) containing the solutions of chalcones 3a–f at MIC and three higher concentrations were dropped on MH agar plates.
# [4] = test system: S. aureus 1466; test: as above; type: cell-based, Staphylococcus aureus; conditions: Staphylococcus aureus, S. aureus 1466, mean ± SD of three independent experiments
# Description: as §3
# [5] = pH effect on fluorescence emission; type: physicochemical; conditions: pH range from 2 to 12, 2 µM, 3% Tween 80
# Description: Chalcones 3a–f (2 µM) were dissolved in commercial pH 1–12 buffers purchased from Merck (St. Louis, MO, USA) (glycine/NaCl/HCl for pH 1, citric acid/NaOH/HCl for pH 2–6, Na2HPO4/KH2PO4 for pH 7, boric acid/ KCl/NaOH for pH 8–11, Na3PO4/NaOH for pH 12) in the presence of Tween 80 (3% w/w). The actual pH values of the final buffer solutions were measured by a pH meter. The resulting solutions were examined by a Spectrofluorometer (PerkinElmer LS55) at the maximum absorbance wavelength of each compound.
# [6] = test system: HepG2; test: Cell viability MTT assay, cancer cells; type: cell-based; conditions: Homo sapiens; HepG2, 24 h, MTT; read-out: IC50
# Description: as §1, §2
# [7] = Photophysical properties (UV–Vis absorption and fluorescence spectra); type: physicochemical; conditions: for λabs absorption maximum wavelength / ∆λ stokes shifts (λem − λabs) / λem emission maximum wavelength / Φf fluorescence quantum yields: 2 µM; for λem emission maximum wavelength: excited at the maximum absorption wavelength; for Φf fluorescence quantum yields: n = 3, relative to fluorescein in 0.1 M NaOH
# Description: All UV–Vis absorption and fluorescence spectra were recorded on a UV–Vis Spectrophotometer (Agilent Technologies Cary 300, Santa Clara, CA, USA) and a Spectrofluorometer (PerkinElmer LS55, Waltham, MA, USA), respectively. In both experiments, the stock solutions of chalcones 3a–f were prepared as 0.5 mM in DMSO. The appropriate amount of the stock solution was added to DMSO, MeOH, and 0.01 M PBS buffer (pH 7.4) with 3% Tween 80 (3 mL) to obtain the final concentration of 2 µM in the testing solutions. For fluorescence experiments, the emission spectra were recorded at the maximum absorbance wavelength of each compound. The fluorescent quantum yields (Φf) were calculated relative to fluorescein in 0.1 M NaOH as a standard (Φf = 0.95).
# [8] = 0.1 M NaOH, used as standard; no reference given; cited from earlier work
structure (smiles),measurement,setting,value
CN(C)c1ccc(/C=C/C(=O)c2ccc(N)cc2)cc1 [3f],IC50,[1],> 100 µM
same,% photobleaching of absorbance,[2],48%
same,% photobleaching of fluorescence,[2],47%
same,MBC,[3]; read-out: MBC,750 ± 0.01 µM
same,MIC,[3]; read-out: MIC,375 ± 0.01 µM
same,MBC,[4]; read-out: MBC,1000 ± 0.04 µM
same,MIC,[4]; read-out: MIC,375 ± 0.01 µM
same,fluorescence emission,[5],Higher emission peaks
same,IC50,[6],54 µM
same,ε molar absorptivity,[7]; DMSO,35000 M⁻¹ cm⁻¹
same,λabs absorption maximum wavelength,[7]; DMSO,412 nm
same,∆λ stokes shifts (λem − λabs),[7]; DMSO,100 nm
same,λem emission maximum wavelength,[7]; DMSO,512 nm
same,Φf fluorescence quantum yields,[7]; DMSO,0.21 ± 0.03
same,ε molar absorptivity,[7]; MeOH,31000 M⁻¹ cm⁻¹
same,λabs absorption maximum wavelength,[7]; MeOH,414 nm
same,∆λ stokes shifts (λem − λabs),[7]; MeOH,135 nm
same,λem emission maximum wavelength,[7]; MeOH,549 nm
same,Φf fluorescence quantum yields,[7]; MeOH,0.027 ± 0.011
same,ε molar absorptivity,[7]; PBS (3%w/w tween 80),34000 M⁻¹ cm⁻¹
same,λabs absorption maximum wavelength,[7]; PBS (3%w/w tween 80),412 nm
same,∆λ stokes shifts (λem − λabs),[7]; PBS (3%w/w tween 80),112 nm
same,λem emission maximum wavelength,[7]; PBS (3%w/w tween 80),524 nm
same,Φf fluorescence quantum yields,[7]; PBS (3%w/w tween 80),0.18 ± 0.02
O=C1OC2(c3ccc(O)cc3Oc3cc(O)ccc32)c2ccccc21 [fluorescein],Φf fluorescent quantum yield of the standard,[8],0.95
